Source: ChEMBL document CHEMBL3091385, “Radionuclide labeling and evaluation of candidate radioligands for PET imaging of histone deacetylase in the brain” (Bioorg Med Chem Lett, 2013)

Columns and labels:
[1] = Lipophilicity, log D of the compound at pH 7.4; assay type: physicochemical; details: buffer
[2] = Drug uptake in iv dosed baboon liver after 90 mins by PET analysis in presence of SAHA; assay type: ADME, organism-based; details: papio anubis, in vivo
[3] = Drug uptake in iv dosed baboon kidney after 90 mins by PET analysis in presence of SAHA; assay type: ADME, organism-based; details: papio anubis, in vivo
Brain [4] = test: Drug uptake in iv dosed baboon whole brain after 90 mins by PET analysis; assay type: ADME, organism-based; details: papio anubis, in vivo
[5] = Drug uptake in iv dosed baboon kidney after 90 mins by PET analysis; assay type: ADME, organism-based; details: papio anubis, in vivo
[6] = Drug uptake in iv dosed baboon cerebellum after 90 mins by PET analysis; assay type: ADME, organism-based; details: papio anubis, in vivo
[7] = Drug uptake in iv dosed baboon liver after 90 mins by PET analysis; assay type: ADME, organism-based; details: papio anubis, in vivo
[8] = Drug uptake in iv dosed baboon heart after 90 mins by PET analysis in presence of SAHA; assay type: ADME, organism-based; details: papio anubis, in vivo
Brain [9] = test: Drug uptake in iv dosed baboon brain after 90 mins by PET analysis; assay type: ADME, organism-based; details: papio anubis, in vivo
[10] = Drug uptake in iv dosed baboon putamen after 90 mins by PET analysis; assay type: ADME, organism-based; details: papio anubis, in vivo
[11] = Drug uptake in iv dosed baboon caudate after 90 mins by PET analysis; assay type: ADME, organism-based; details: papio anubis, in vivo
[12] = Drug uptake in iv dosed baboon heart after 90 mins by PET analysis; assay type: ADME, organism-based; details: papio anubis, in vivo
[13] = Protein binding in plasma (unknown origin); assay type: ADME, cell-free; details: unidentified, read-out: PPB (converted)

Row | logD ([1]; read-out: logD) | Drug uptake [2] | Drug uptake [3] | Drug uptake (Brain [4]) | Drug uptake [5] | Drug uptake [6] | Drug uptake [7] | Drug uptake [8] | Drug uptake (Brain [9]) | Drug uptake [10] | Drug uptake [11] | Drug uptake [12] | fraction unbound [13] | SMILES | logD [1]
1 | 1.79 |  |  |  |  |  |  |  |  |  |  |  |  | Nc1ccccc1NC(=O)c1ccc(CN[11C](=O)OCc2cccnc2)cc1 | 
2 |  |  |  |  |  |  |  |  |  |  |  |  |  | O=C(C[18F])NCCCCCC(=O)Nc1ccccc1 | 1.39
3 | 0.5 | Active | Active | Active | Active | Active | Active | Active | Active | Active | Active | Active | 0.085 | [11CH3]Oc1ccc(C(=O)CCCCCCC(=O)NO)cc1 | 
